Reference: ChEMBL document CHEMBL3507680, “University of Dundee, Gates Library screen for HepG2 cell viability”

Experiment: Human HepG2 cell viability assay in 384 well format
Assay type: toxicity, cell-based
Parameters: dose 125 nL, time 70.5 hour; cytotoxicity at 70.5 h: concentration not given beside the values
Details: HepG2 cells, read-out: Inhibition

| Structure (SMILES) | cytotoxicity at 70.5 h [%] |
| --- | --- |
| Cc1noc(C(C)N2CCN(CC(=O)N3CCCC3)CC2)n1 (stereo unspecified) | -1.93 |
| Cc1noc(C(C)N2CCN(CCC(=O)N3CCOCC3)CC2)n1 (stereo unspecified) | -5.76 |
| COc1cccc(CC(=O)NCC(Cc2ccc(F)cc2)C(N)=O)c1 (stereo unspecified) | -4.64 |
| CC(C)OCCC(=O)NCCC(=O)N1CCN(c2ccccn2)CC1 | -3.84 |
| COCCOCC(=O)Nc1ccc(C)cc1Cl | -0.473 |
| O=C(C1CC=CC1)N1CCC2(CC1)OCCO2 | -4.94 |
| CCn1cnnc1C1CCN(C(=O)c2ccc(OC(C)C)nc2)CC1 | 5.53 |
| CCCc1nc(C)c(C(=O)Nc2cccc(C)n2)s1 | 23.8 |
| CC(C)c1ncc(C(=O)N2CCOCC2CC(=O)c2ccco2)s1 (stereo unspecified) | -2.34 |
| COCCN1C(=O)CC(N2CCN(c3ccccc3)CC2)C1=O (stereo unspecified) | -3.99 |
| CCOc1ncccc1NC(=O)c1ccc(C)s1 | -7.78 |
| Fc1ccc(C2CCCN2Cc2nnnn2C2CC2)cc1 (stereo unspecified) | 28.2 |
| CC1CN(C(=O)Nc2cccc(CN3CCOC3=O)c2)CCO1 (stereo unspecified) | -9.66 |
| O=C(Nc1cccc(CN2CCOC2=O)c1)N1CCCC1 | -6.57 |
| CC1CCCN(C(=O)Nc2cccc(CN3CCOC3=O)c2)C1 (stereo unspecified) | 35.6 |
| CC(C)NC(=O)c1nnn(-c2ccccc2)c1C1CC1 | -6.4 |
| O=C(NC1CC1)c1nnn(-c2cccc(C(F)(F)F)c2)c1C1CC1 | -8.39 |
| CCN1CCC(NC(=O)c2ccc(F)cc2I)CC1 | -7.1 |
| Cc1cccc(CNC(=O)Nc2cc(C(F)(F)F)c[nH]c2=O)n1 | -6.24 |
| NC(=O)COc1ccc(CNCc2c(F)cccc2F)cc1 | -3.08 |
| CCc1nnc2n1CCN(C(=O)c1ccc3[nH]nnc3c1)C2 | -8.74 |
| CCc1nnc2n1CCN(C(=O)c1ccc3c(c1)[nH]c(=O)n3C)C2 | -2.36 |

| Structure (SMILES) | cytotoxicity at 70.5 h [%] |
| --- | --- |
| Cc1nc2ccc(C(=O)N3CCn4c(C)nnc4C3)cc2nc1C | -5.63 |
| Cc1cccc(-c2noc(CNC(C)Cn3cc(C)cn3)n2)c1 (stereo unspecified) | -0.846 |
| CCc1nnc2n1CCN(C(=O)c1ccc3c(c1)nnn3C)C2 | -0.825 |
| Cc1cnn(CC(C)NCc2nc(-c3ccoc3)no2)c1 (stereo unspecified) | 38.1 |
| Cc1n[nH]c(C)c1NC(=O)CN1CCCC1Cn1cncn1 (stereo unspecified) | -0.918 |
| COc1cccc(CNCCc2cc(F)cc3c2OCOC3)c1OC | 5.71 |
| CN(C)c1cccc(C2CCCN2Cc2nnnn2C2CC2)c1 (stereo unspecified) | -1.65 |
| COc1cc(CNCCc2cc(F)cc3c2OCOC3)cc(OC)c1 | 1.52 |
| O=C(Nc1cccc(CN2CCOC2=O)c1)N1CCCCCC1 | 35.8 |
| CCC(=O)N1CCCC1c1ccsc1 (stereo unspecified) | -5.78 |
| Cc1nc(C)n(CC2CCCN(CC(=O)Nc3cccnc3)C2)n1 (stereo unspecified) | -0.663 |
| O=C(CN1CCCC1Cn1cncn1)NCC1(c2ccccc2)CC1 (stereo unspecified) | -5.75 |
| CC(Cn1cccn1)NCc1nc(-c2cccnc2)no1 (stereo unspecified) | -3.96 |
| Cc1nc(-c2ccsc2)ccc1C(=O)N(C)CC1CC1 | -7.16 |
| CCCc1n[nH]c(C2CN(C(=O)CCn3cc(C)cn3)CCO2)n1 (stereo unspecified) | 4.48 |
| CS(=O)(=O)c1ccc(C(=O)N2CCCC(n3cncn3)C2)o1 (stereo unspecified) | 21.1 |
| CCc1cnc(CN(C)C2CCN(CCCNS(C)(=O)=O)C2)o1 (stereo unspecified) | -2.35 |
| CS(=O)(=O)Cc1ccc(C(=O)N2CCCC(n3cncn3)C2)o1 (stereo unspecified) | 1.66 |
| COc1ccc(C2CCCN2S(=O)(=O)N(C)C)cc1 (stereo unspecified) | -6.59 |
| CCCOc1ccc(Cl)cc1NC(=O)NCCC(=O)N(C)C | 4.12 |
| CCCOc1cc(C)ccc1NC(=O)NCCNC(C)=O | 3.53 |
| CCOc1ccccc1NC(=O)N(CCO)Cc1ccsc1 | 2.23 |

| Structure (SMILES) | cytotoxicity at 70.5 h [%] |
| --- | --- |
| CC(C)(C(=O)NCC(=O)N1CCCC1)c1ccccc1F | 3.99 |
| CC(C)c1ncncc1C(=O)NCCN1CCCCCC1 | -0.207 |
| CC(C)c1nnc2n1CC(CNCc1ccsc1)CC2 (stereo unspecified) | 2.53 |
| CC(C)N(CCC#N)C(=O)c1cnc(-c2ccc3c(c2)OCO3)s1 | -0.296 |
| O=C(CCc1ccsc1)NC1CCN(c2cccc(F)c2)CC1 | 4.39 |
| CCCc1ccc(S(=O)(=O)NC(=O)CCc2cscn2)cc1 | 4.19 |
| O=C(CCc1ccc(Cl)cc1)NC1CCN(c2cccc(F)c2)CC1 | 10.5 |
| CC(C)c1ncncc1C(=O)NCCN1CCCCC1C (stereo unspecified) | -1.51 |
| Cc1nn(C)c(N2CCOCC2)c1CNCc1cccnc1 | 24.7 |
| Cc1ccc(-c2n[nH]cc2CNCCn2cccn2)o1 | 2.17 |
| CCc1sc(C(=O)Nc2cnn(CCN(C)C)c2)cc1C | -17.9 |
| O=C(c1ccc(N2CCCC2)nn1)N1CCCc2cc(F)c(F)cc21 | -1.17 |
| O=C(c1ccc(N2CCCC2)nn1)N1CCCc2ccc(F)cc21 | 8.25 |
| COc1ccc(-c2noc(C3CCS(=O)(=O)C3)n2)cc1OC (stereo unspecified) | -10.7 |
| COCC(=O)NC(c1ccc(Cl)cc1)C(F)(F)F (stereo unspecified) | -12.5 |
| Cc1cc(CS(=O)(=O)N(C)C(C)c2ccc(F)cc2)on1 (stereo unspecified) | -7.52 |
| O=C(CNC(=O)N(Cc1ccoc1)C1CCCCC1)N1CCCC1 | -7.2 |
| CCc1nc(CNc2ccc(C(=O)NCc3ccco3)cc2C)no1 | -9.99 |
| Cc1cnc(CNc2ccc(C(=O)NCc3ccco3)cc2C)o1 | 6.63 |
| CC(NCCCC#N)c1ccc(-c2ccncc2)cc1 (stereo unspecified) | 14.3 |
| O=C(NCC1(c2ccc(F)cc2)CCC1)N1CCC2(CCOCC2)C1 | 7.66 |
| Cc1nnc(CN(Cc2ccccc2Br)C2CC2)o1 | -8.83 |

| Structure (SMILES) | cytotoxicity at 70.5 h [%] |
| --- | --- |
| Cc1nnc(CN(Cc2ccccc2C(F)(F)F)C2CC2)o1 | -10.9 |
| Cc1nnc(CN(Cc2ccccc2Cl)C2CCCC2)o1 | -5.33 |
| CCc1cnc(CNc2ccc(C(=O)NCc3ccco3)cc2C)o1 | -8.92 |
| Cc1ccccc1-n1cnc(Cl)c1C(=O)O | -8.21 |
| O=C(O)c1ccnc(SCc2ccccc2)c1 | 32.7 |
| Cc1ccc(-c2nc(CSCCC(=O)NC(N)=O)co2)cc1 | -11.4 |
| O=C1CC(N(C(=O)CCc2c[nH]c3ccccc23)C2CC2)C(=O)N1 (stereo unspecified) | -14.1 |
| Cc1nnc(C(C)N2CCc3[nH]c4ccc(Cl)cc4c3C2)o1 (stereo unspecified) | -4.39 |
| Cc1nnc(C(C)N2CCc3[nH]c4ccccc4c3C2)o1 (stereo unspecified) | -4.16 |
| O=C(O)c1c(Cl)ncn1-c1cccc2ccccc12 | -4.51 |
| O=C(NC1CCN(c2ccccc2Br)C1)c1c[nH]nn1 (stereo unspecified) | -6.49 |
| O=C(O)c1cccn1-c1ccc2c(c1)OCCO2 | -9.54 |
| Clc1cc(Cl)cc(OCCN2CCC(n3cncn3)CC2)c1 | -0.108 |
| CC(C)N1CCN(C(=O)c2ccccc2NCc2cccnc2)CC1 | -5.19 |
| Cc1cc(=O)c(C(=O)N2CCN(C)c3ccccc3C2)c[nH]1 | -9.5 |
| CC(C)(CO)CCCNC(=O)NC1(c2cccc(F)c2)CC1 | -8.07 |
| CCC1CN(C)c2ccccc2CN1C(=O)c1c[nH]c(=O)cc1C (stereo unspecified) | -11.3 |
| O=C(O)c1c(Cl)ncn1-c1ccccc1 | -9.78 |
| NC(=O)COc1ccc(CNCc2ccc(F)cc2)cc1 | -4.15 |
| NC(=O)COc1ccc(CNCc2cc(F)cc(F)c2)cc1 | -8.73 |
